These are literature values, as cited in patent publication EP2839829B1 (Korea United Pharm. Inc., priority 2012, dated 2013).

The conditions of the data set: in the body.

Take `OC[C@@H](O)CN1CCN(c2ccccc2)CC1` [levodropropizine]: the half life result was “about 1 hr”.
